Laboratory results as given in ChEMBL document CHEMBL3045835, “Comparative study of conventional and microwave-assisted synthesis of some Schiff bases and their potential as antimicrobial agents” (2012).
Values after ≈ are worked out from the molar mass of the structure shown.

How the values were obtained:
Assay type in all cases: functional
[1] = tested on: Pseudomonas aeruginosa; assay: Antibacterial activity against Pseudomonas aeruginosa MTCC 424 after 24 hr by broth dilution method; details: MTCC 424, 24 h
[2] = tested on: Micrococcus luteus; assay: Antibacterial activity against Micrococcus luteus MTCC 1538 after 24 hr by broth dilution method; details: MTCC 1538, 24 h
[3] = tested on: Bacillus pumilus; assay: Antibacterial activity against Bacillus pumilus MTCC 1456 after 24 hr by broth dilution method; details: MTCC 1456, 24 h
[4] = tested on: Staphylococcus aureus; assay: Antibacterial activity against Staphylococcus aureus MTCC 1430 after 24 hr by broth dilution method; details: MTCC 1430, 24 h
[5] = tested on: Bacillus subtilis; assay: Antibacterial activity against Bacillus subtilis MTCC 441 after 24 hr by broth dilution method; details: MTCC 441, 24 h
[6] = tested on: Pseudomonas fluorescens; assay: Antibacterial activity against Pseudomonas fluorescens MTCC 2421 at 1000 ug/ml after 18 hr by cup-plate method; details: MTCC 2421, 18 h, read-out: DIZ
[7] = tested on: Pseudomonas fluorescens; assay: Antibacterial activity against Pseudomonas fluorescens MTCC 2421 at 1500 ug/ml after 18 hr by cup-plate method; details: MTCC 2421, 18 h, read-out: DIZ
[8] = tested on: Pseudomonas fluorescens; assay: Antibacterial activity against Pseudomonas fluorescens MTCC 2421 at 500 ug/ml after 18 hr by cup-plate method; details: MTCC 2421, 18 h, read-out: DIZ
[9] = tested on: Pseudomonas fluorescens; assay: Antibacterial activity against Pseudomonas fluorescens MTCC 2421 at 200 ug/ml after 18 hr by cup-plate method; details: MTCC 2421, 18 h, read-out: DIZ
[10] = tested on: Penicillium chrysogenum; assay: Antifungal activity against Penicillium chrysogenum MTCC 161 at 1500 ug/ml after 18 hr by cup-plate method; details: MTCC 161, 18 h, read-out: DIZ
[11] = tested on: Penicillium chrysogenum; assay: Antifungal activity against Penicillium chrysogenum MTCC 161 at 1000 ug/ml after 18 hr by cup-plate method; details: MTCC 161, 18 h, read-out: DIZ
[12] = tested on: Penicillium chrysogenum; assay: Antifungal activity against Penicillium chrysogenum MTCC 161 at 500 ug/ml after 18 hr by cup-plate method; details: MTCC 161, 18 h, read-out: DIZ
[13] = tested on: Penicillium chrysogenum; assay: Antifungal activity against Penicillium chrysogenum MTCC 161 at 200 ug/ml after 18 hr by cup-plate method; details: MTCC 161, 18 h, read-out: DIZ
[14] = tested on: Penicillium chrysogenum; assay: Antifungal activity against Penicillium chrysogenum MTCC 161 at 100 ug/ml after 18 hr by cup-plate method; details: MTCC 161, 18 h, read-out: DIZ
[15] = tested on: Aspergillus niger; assay: Antifungal activity against Aspergillus niger MTCC 2546 at 1000 ug/ml after 18 hr by cup-plate method; details: MTCC 2546, 18 h, read-out: DIZ
[16] = tested on: Aspergillus niger; assay: Antifungal activity against Aspergillus niger MTCC 2546 at 1500 ug/ml after 18 hr by cup-plate method; details: MTCC 2546, 18 h, read-out: DIZ
[17] = tested on: Aspergillus niger; assay: Antifungal activity against Aspergillus niger MTCC 2546 at 500 ug/ml after 18 hr by cup-plate method; details: MTCC 2546, 18 h, read-out: DIZ
[18] = tested on: Aspergillus niger; assay: Antifungal activity against Aspergillus niger MTCC 2546 at 100 ug/ml after 18 hr by cup-plate method; details: MTCC 2546, 18 h, read-out: DIZ
[19] = tested on: Aspergillus niger; assay: Antifungal activity against Aspergillus niger MTCC 2546 at 200 ug/ml after 18 hr by cup-plate method; details: MTCC 2546, 18 h, read-out: DIZ
[20] = tested on: Escherichia coli; assay: Antibacterial activity against Escherichia coli MTCC 1573 at 1500 ug/ml after 18 hr by cup-plate method; details: MTCC 1573, 18 h, read-out: DIZ
[21] = tested on: Escherichia coli; assay: Antibacterial activity against Escherichia coli MTCC 1573 at 500 ug/ml after 18 hr by cup-plate method; details: MTCC 1573, 18 h, read-out: DIZ
[22] = tested on: Escherichia coli; assay: Antibacterial activity against Escherichia coli MTCC 1573 at 1000 ug/ml after 18 hr by cup-plate method; details: MTCC 1573, 18 h, read-out: DIZ
[23] = tested on: Escherichia coli; assay: Antibacterial activity against Escherichia coli MTCC 1573 at 200 ug/ml after 18 hr by cup-plate method; details: MTCC 1573, 18 h, read-out: DIZ
[24] = tested on: Escherichia coli; assay: Antibacterial activity against Escherichia coli MTCC 1573 at 100 ug/ml after 18 hr by cup-plate method; details: MTCC 1573, 18 h, read-out: DIZ
[25] = tested on: Pseudomonas fluorescens; assay: Antibacterial activity against Pseudomonas fluorescens MTCC 2421 at 100 ug/ml after 18 hr by cup-plate method; details: MTCC 2421, 18 h, read-out: DIZ
[26] = tested on: Pseudomonas aeruginosa; assay: Antibacterial activity against Pseudomonas aeruginosa MTCC 424 at 1500 ug/ml after 18 hr by cup-plate method; details: MTCC 424, 18 h, read-out: DIZ
[27] = tested on: Pseudomonas aeruginosa; assay: Antibacterial activity against Pseudomonas aeruginosa MTCC 424 at 1000 ug/ml after 18 hr by cup-plate method; details: MTCC 424, 18 h, read-out: DIZ

`C(=N\c1nc[nH]n1)/c1cccs1` gave an MIC [1] of 200 µg/mL (≈ 1120 µM), an MIC [2] of 200 µg/mL (≈ 1120 µM) and an MIC [3] of 200 µg/mL (≈ 1120 µM). The MIC [4] was 300 µg/mL (≈ 1680 µM), the MIC [5] was 300 µg/mL (≈ 1680 µM) and the zone of inhibition at 1000 µg/mL [6] was 18 mm. The zone of inhibition at 1500 µg/mL [7] was 21 mm, the zone of inhibition at 500 µg/mL [8] was 15 mm and the zone of inhibition at 200 µg/mL [9] was 13 mm. The zone of inhibition at 1500 µg/mL [10] was 19 mm, the zone of inhibition at 1000 µg/mL [11] was 18 mm and the zone of inhibition at 500 µg/mL [12] was 16 mm. For the same compound, the zone of inhibition at 200 µg/mL [13] was 15 mm, the zone of inhibition at 100 µg/mL [14] was 13 mm and the zone of inhibition at 1000 µg/mL [15] was 16 mm. The zone of inhibition at 1500 µg/mL [16] was 19 mm, the zone of inhibition at 500 µg/mL [17] was 15 mm and the zone of inhibition at 100 µg/mL [18] was 11 mm. It also gave a zone of inhibition at 200 µg/mL [19] of 13 mm, a zone of inhibition at 1500 µg/mL [20] of 21 mm and a zone of inhibition at 500 µg/mL [21] of 18 mm. It also gave a zone of inhibition at 1000 µg/mL [22] of 20 mm, a zone of inhibition at 200 µg/mL [23] of 16 mm and a zone of inhibition at 100 µg/mL [24] of 14 mm. For the same compound, the zone of inhibition at 100 µg/mL [25] was 11 mm, the zone of inhibition at 1500 µg/mL [26] was 20 mm and the zone of inhibition at 1000 µg/mL [27] was 18 mm.
